{"source": "paper PMC9822352", "about": "“Design, Synthesis and Evaluation of New Multifunctional Benzothiazoles as Photoprotective, Antioxidant and Antiproliferative Agents” (Molecules, 2022)", "key": {"[1]": {"test": "DPPH radical scavenging test", "conditions": "compound at 1 mg/mL, 30 min, 517 nm; mean ± SEM", "method": "The DPPH assay is widely used, and the simplest and fastest in vitro method for evaluating the antioxidant power of extracts or isolated compounds; it is based on the depletion of the 2,2-diphenyl-1-picrylhydrazyl radical (DPPH˙) by an antioxidant molecule with scavenger activity. This is an extremely sensitive test that can detect the activity of active ingredients present in very low concentrations.\nThe procedure used was adapted from Wang et al.. Briefly, 0.750 mL of a methanolic solution of each tested compound was treated with 1.5 mL of DPPH solution (0.004%) in MeOH. Samples were stored in the dark at room temperature for 30 min, and the absorbance value was read with a spectrophotometer at 517 nm, which is the maximum peak of absorbance relative to the DPPH radical absorption spectra. The values obtained were fitted into Equation (1) and converted to inhibition percentage (%) of the radical:DPPH inhibition percentage (%) = 100 × [1 − A1/A0](1) where A1 and A0 were, respectively, the absorbance recorded with and without the sample, which are directly proportional to DPPH residual concentration in the sample and DPPH concentration in the control (0.750 of MeOH and 1.5 mL of DPPH solution). […] A linear regression was performed to calculate the sample concentration able to eliminate 50% of DPPH free radicals."}, "[2]": {"test": "FRAP (Ferric Reducing Antioxidant Power) assay", "conditions": "Trolox standard, 37 °C 10 min, 593 nm; mean ± SEM", "source_text": "The FRAP (Ferric Reducing Antioxidant Power) test allows the measurement of the ability of antioxidants to reduce ferric ion to ferrous. This method represents one of the simplest, quickest and least expensive methods for the determination of reducing properties on oxidized species in vitro.\nThe FRAP test (Ferric Reducing Antioxidant Power) is based on a colorimetric reaction and evaluates the ability of a sample of reducing ferric ions to ferrous ion while complexed with TPTZ (2,4,6-trispyridil-s-triazine). The FRAP solution was prepared from 0.1 M acetate buffer (pH 3.6), 10 mmol/L of TPTZ in 40 mM HCl, and 20 mM solution of FeCl3, with a 10:1:1 ratio, as described. Then, 1.9 mL of this solution was incubated with 0.1 mL of the sample solution at 37 °C for 10 min. The absorbance was read with a UV-Vis spectrophotometer at a 593 nm wavelength, relative to the maximum peak of absorbance of Fe^2+-TPTZ complex. Trolox® was used as a standard and the results are expressed as µmolTE/g."}, "[3]": {"test": "UV spectra in solution (MeOH-DMSO): λmax and molar extinction coefficient", "format": "physicochemical", "conditions": "for ε (molar extinction coefficient): at λmax, Lambert-Beer equation, in M-1 cm-1 (unit assumed); for λmax: solution in MeOH-DMSO, 290–400 nm", "method": "We next investigated the protective potential against UV radiation of each compound. Specifically, in vitro tests were conducted to determine the parameters related to absorption in the UV spectrum and those fundamental to the relative evaluation of the filtering potential and thus candidature as possible UV sunscreen ingredients of the candidates under examination, including λ critical and SPF (sun protection factor). Since the SPF is correlated to the UV quantitative absorption of the substances, the wavelength of maximum absorption (λmax) and the molar extinction coefficient (ε) of the derivatives in solution (MeOH-DMSO) were evaluated (Figures S1 and S2, Supplementary Materials). The UV spectra of the compounds BZTidr1–6 and BZTcin1–5 were recorded in the UVA-UVB range (290–400 nm) to evaluate their profile and compare it to that of the PBSA, a commercial UVB filter that has a λmax of 302 nm. After this peak, the absorbance of PBSA drops, reaching almost zero in the 325 nm range, and thus not providing absorption in the UVA region.\nOnce the λmax of each derivative was established, the molar extinction coefficient ε was calculated by applying the Lambert-Beer equation (Table S1, Supplementary Materials): the higher this value, the greater the ability of the compound under examination to absorb UV radiation. […] The excellent values of BZTidr1, BZTidr2 and BZTidr3 are ascribed to the aforementioned hyperchromic shift. In regard to the BZTcin1–5 series, the molar extinction coefficients calculated were very high, and the best values were those of BZTcin1, BZTcin2 and BZTcin3, also attributable to the hyperchromic shift of the absorption spectra. For both series, the excellent absorption capacity of ultraviolet radiation can be traced back to the high π-type conjugation that characterizes them."}, "[4]": {"test": "In vitro filtering parameters of O/W sunscreen formulation containing 3% compound (modified Diffey-Robson, PMMA plates)", "conditions": "3% in formulation, before irradiation", "source_text": "All synthesized compounds were formulated at 3% and their photoprotective efficacy, determined by spectrophotometric measurements using the modified Diffey-Robson method, was compared with that of the lead compound PBSA (used at 3% in the same formulation) and using the base without active as a control (Table 2).\nThe synthesized compounds were incorporated at a concentration of 3% in a typical oil-in-water sunscreen formulation, to evaluate the filtering parameters, and have the following ingredient composition:\nINCI (International Nomenclature Cosmetic Ingredients): aqua, glycerin, Euxyl PE 9010, xanthan gum, Tribehenin PEG-20 Esters, cetearyl alcohol, dicaprylyl carbonate, PPG-26-Buteth-26 (and) PEG-40 Hydrogenated Castor Oil (and) water, C12-C15 Alkyl Benzoate, and Sodium hydroxide (sol. 10%).\nAs previously reported the protocol indicates to spread 32.5 mg of each formulation on 25 cm^2 PMMA plates with the fingers. Each formulation was tested in triplicate, and five measurements were recorded for each dish, following a 15–30 min incubation in the dark at room temperature. UV transmittance data was recorded using a UV-VIS spectrophotometer in the range 290–400 nm. The blank plate, SPF, UVA-PF and critical wavelength were obtained by SPF Calculator software (version 2.1), Shimadzu, Milan, Italy)."}, "[5]": {"test": "Photostability study of 3% formulation (post-irradiation filtering parameters)", "conditions": "3% in formulation, post irradiation", "source_text": "To outline the efficacy and safety profile of a sunscreen formulation, it is essential to provide data relating to photostability. It is possible to provide photodegradation data by recording, pre- and post-irradiation, the transmittance of PMMA plates with finger-coat formulations subjected to a dose of UVA capable of causing erythema, according to the criteria of Garoli et al.. By means of Equations (2) and (3) it was possible to evaluate the residual percentage of SPF in vitro and of UVA-PF for all the prepared formulations. Of greatest interest are the values obtained for the derivatives BZTcin2 and BZTcin4.\nTo determine the photostability, the previously reported method was adopted, which consists in preparing each plate as mentioned above and subjecting it to solar irradiation quantified as the minimum dose of UVA equivalent to an effective radiant exposure of erythema. The protocol stipulates that, before and after exposure to sunlight, the transmission of the sun protection layer in the range of 290–400 nm is recorded.\nUsing Equations (2) and (3) below, the residual percentage of SPF in vitro (% SPFeff.) and UVA-PF (% UVA-PFeff.) have been obtained, which, if greater than or equal to 80, can classify a filter as photostable. %SPFeff. = in vitro SPFafter/in vitro SPFbefore × 100(2) %UVA − PFeff. = UVA − PFafter/UVA − PFbefore × 100(3)"}, "HaCat keratinocytes": {"system": "HaCat keratinocytes", "test": "Cell growth inhibition assay, HaCat", "format": "cell-based, human", "conditions": "Homo sapiens, HaCaT; 24 h incubation, cell count", "method": "(§1) All synthesized compounds were tested in order to evaluate their in vitro antiproliferative activity. The human melanoma Colo-38 cell line was selected as a tumor skin model, while the immortalized human HaCaT keratinocytes were chosen as a control for the evaluation of the cytotoxicity towards non-cancerous cells and of the selectivity towards tumor cell lines. […] The selectivity index (SI) was also calculated and is the ratio between the IC50 of a given compound towards the non-cancerous cell line and the IC50 of the same compound towards the tumor cell line.\n(§2) Cell growth inhibition assays were carried out using human melanoma Colo-38 cells and skin HaCat keratinocytes cells. Human melanoma Colo-38 cells were kindly provided by Dr. Patrizio Giacomini (Laboratory of Immunology, Regina Elena Institute, Rome, Italy). HaCat cells were kindly provided by Istituto Zooprofilattico Sperimentale della Lombardia e dell’Emilia Romagna, Brescia, Italy. Cell lines were seeded using concentrations of 40,000 cells/mL and 25,000 cells/mL, respectively. Colo-38 cells were maintained in RPMI 1640, supplemented with 10% fetal bovine serum (FBS), penicillin (100 Units mL^−1), and streptomycin (100 µg mL^−1). HaCat cells were maintained in DMEM, supplemented with 10% fetal bovine serum (FBS), penicillin (100 Units mL^−1), streptomycin (100 µg mL^−1) and glutamine (2 mM); the incubation was performed at 37 °C in a 5% CO2 atmosphere. Tested compounds were dissolved in MeOH/DMSO (1:1) to obtain 50 mM stock solutions and diluted before cell treatment in MeOH 100%. The tested compounds were added at serial dilutions to the cell cultures (from 0.1 to 100 µM) and incubated for 24 h further. Cells were then harvested, suspended in physiological solution, and counted with a Z2 Coulter Counter (Coulter Electronics, Hialeah, FL, USA). The cell number/mL and the IC50 values were determined when untreated cells were in the log phase of cell growth. Cells treated with vehicles and untreated cells were placed in each plate."}, "melanoma Colo-38 cells": {"system": "melanoma Colo-38 cells", "test": "Cell growth inhibition assay, Colo-38", "format": "cell-based, human", "conditions": "Homo sapiens; 24 h incubation, cell count", "method": "as §1, §2"}}, "data": [{"smiles": "COc1ccc(/C=N/NC(=O)c2nc3ccccc3s2)cc1", "note": "[BZTidr3, (E)-N′-(4-methoxybenzylidene)benzo[d]thiazole-2-carbohydrazide]", "values": [{"measurement": "DPPH (% Inhibition)", "setting": "[1]", "result": "24.25 ± 1.38", "unit": "%"}, {"measurement": "FRAP", "setting": "[2]", "result": "273.99 ± 10.12", "unit": "µmolTE/g"}, {"measurement": "ε (molar extinction coefficient)", "setting": "[3]", "result": 29641.85}, {"measurement": "λmax", "setting": "[3]", "result": 333.1, "unit": "nm"}, {"measurement": "SPF", "setting": "[4]", "result": 1.31}, {"measurement": "UVA/UVB", "setting": "[4]", "result": 1.11}, {"measurement": "UVAPF0", "setting": "[4]", "result": 1.44}, {"measurement": "λc", "setting": "[4]", "result": 387, "unit": "nm"}, {"measurement": "SPF", "setting": "[5]", "result": 1.31}, {"measurement": "UVA/UVB", "setting": "[5]", "result": 1.11}, {"measurement": "UVAPF", "setting": "[5]", "result": 1.41}, {"measurement": "λc", "setting": "[5]", "result": 387, "unit": "nm"}, {"measurement": "melting point", "result": "208 to 215", "unit": "°C"}]}, {"smiles": "O=C(N/N=C/c1ccc(O)c(O)c1)c1nc2ccccc2s1", "note": "[BZTidr4, (E)-N′-(3,4-dihydroxybenzylidene)benzo[d]thiazole-2-carbohydrazide]", "values": [{"measurement": "DPPH (% Inhibition)", "setting": "[1]", "result": ">90.00", "unit": "%"}, {"measurement": "ε (molar extinction coefficient)", "setting": "[3]", "result": 22183.99}, {"measurement": "λmax", "setting": "[3]", "result": 346.2, "unit": "nm"}, {"measurement": "SPF", "setting": "[4]", "result": 1.53}, {"measurement": "UVA/UVB", "setting": "[4]", "result": 1.05}, {"measurement": "UVAPF0", "setting": "[4]", "result": 1.65}, {"measurement": "λc", "setting": "[4]", "result": 389, "unit": "nm"}, {"measurement": "SPF", "setting": "[5]", "result": 1.63}, {"measurement": "UVA/UVB", "setting": "[5]", "result": 1.05}, {"measurement": "UVAPF", "setting": "[5]", "result": 1.64}, {"measurement": "λc", "setting": "[5]", "result": 389, "unit": "nm"}, {"measurement": "IC50", "setting": "HaCat keratinocytes", "result": "> 100", "unit": "µM"}, {"measurement": "IC50", "setting": "melanoma Colo-38 cells", "result": "92.9 ± 1.62", "unit": "µM"}, {"measurement": "melting point", "result": "> 280", "unit": "°C"}]}]}
